Test results taken from patent publication US12213482B2, “Fungicide enhancers effective for treating plants infected with fungal pathogens” (Board of Regents, The University of Texas System, priority 2015, dated 2025).

Legend:
Sclerotiana sclerotiorum = assay: Antifungal susceptibility disk test, fungicide disk plus apyrase inhibitor in plate; assay type: cell-based; conditions: inhibitor 65 μM, 30° C., 7 days; for inhibitory effect on the growth of Sclerotiana sclerotiorum compared to copper octanoate alone: combined with copper octanoate (285 mM) disk, FIG. 5A; for inhibitory effect on growth of Sclerotiana sclerotiorum compared to myclobutanil alone: combined with myclobutanil (53.6 mM) disk, FIG. 5B; for inhibitory effect on the growth of Sclerotiana sclerotiorum compared to propiconazole alone: combined with propiconazole (418 mM) disk, FIG. 5C
Protocol: (§1) The equivalent volume of dimethylsulphoxide (DMSO) was added as a control. The studies were repeated two times with similar results. Error bars indicate standard deviations (n=5). The significances of the potency of fungicides are indicated: *** (Student's t-test, P<0.001); **(Student's t-test, P<0.01) or *(Student's t-test, P<0.05). The plant pathogenic fungal strains Botrytis cinerea, Colletotrichum graminicola, Fusarium oxysporum, Sclerotiana sclerotiorum and Verticillium dahliae were obtained from the Institute for Plant Genomics & Biotechnology, Texas A & M University, USA Potato dextrose agar (PDA, Sigma-Aldrich) was routinely used for the growth of different pathogenic fungal strain. Ectophosphatase inhibitors NGXT191 (AI.1), AI.10, NGXT1913 (AI.13), and AI. 15 were used dal this study. The fungicides copper octanoate (C16H30CuO4), myclobutanil (C15H17ClN4) and propiconazole (C15H17Cl2N3O2) were used. The concentrations of these compounds used were copper octanoate (285 mM), myclobutanil (53.6 mM) and propiconazole (418 mM). Standard antifungal susceptibility disk tests were performed to determine any potentiating effect of ectophosphatase inhibitors on the growth of pathogenic fungus. The pathogenic fungus wild-type strains were plated on PDA medium with paper-disks containing, fungicides at the center of the plate. […] Plates were incubated at 30° C. for 7-days (C. graminicola and S. sclerotiorum) or 12-days (B. cinerea, F. oxysporum and V. dahliae), depending on the growth rate of the fungi. Plates were photographed, and the zone of fungal growth inhibition was measured by using IMAGE J™ software (NIH, USA). All the tests were performed with 5 replicates. The studies were performed two times. Results were analyzed for significance using Student T-tests.

[1] = system: Fusarium oxysporum f.sp Cubense; assay: as above; assay type: cell-based; conditions: inhibitor 65 μM, 30° C., 12 days; for inhibitory effect on the growth of F. oxysporum compared to copper octanoate alone: combined with copper octanoate (285 mM) disk, FIG. 4A
Protocol: as §1, with “Copper Octanoate, 4B. Propiconazole, and 4C. Myclobutanil against the pathogenic fungi Fusarium oxysporum. […] The equivalent” for “The equivalent”

Cc1cccc(NS(=O)(=O)c2ccc(-c3ccccc3)cc2)c1 [AI.1, N-(m-tolyl)-[1,1′-biphenyl]-4-sulfonamide]
significantly greater inhibitory effect: inhibitory effect on the growth of Sclerotiana sclerotiorum compared to copper octanoate alone (Sclerotiana sclerotiorum) | inhibitory effect on growth of Sclerotiana sclerotiorum compared to myclobutanil alone (Sclerotiana sclerotiorum) | inhibitory effect on the growth of Sclerotiana sclerotiorum compared to propiconazole alone (Sclerotiana sclerotiorum) | inhibitory effect on the growth of F. oxysporum compared to copper octanoate alone [1]

CCCCCCCSC(=O)c1cc2ccccc2oc1=O [AI.10, S-heptyl 2-oxo-2H-chromene-3-carbothioate]
significantly greater inhibitory effect: inhibitory effect on the growth of Sclerotiana sclerotiorum compared to copper octanoate alone (Sclerotiana sclerotiorum) | inhibitory effect on growth of Sclerotiana sclerotiorum compared to myclobutanil alone (Sclerotiana sclerotiorum) | inhibitory effect on the growth of Sclerotiana sclerotiorum compared to propiconazole alone (Sclerotiana sclerotiorum) | inhibitory effect on the growth of F. oxysporum compared to myclobutanil alone ([1]; combined with myclobutanil (53.6 mM) disk, FIG. 4B) | inhibitory effect on the growth of F. oxysporum compared to propiconazole alone ([1]; combined with propiconazole (418 mM) disk, FIG. 4C)

O=C(Nc1cccc([N+](=O)[O-])c1)c1cccc(S(=O)(=O)Nc2ccc(Br)cc2)c1 [AI.13, 3-(N-(4-bromophenyl)sulfamoyl)-N-(3-nitrophenyl)benzamide]
significantly greater inhibitory effect: inhibitory effect on the growth of Sclerotiana sclerotiorum compared to copper octanoate alone (Sclerotiana sclerotiorum) | inhibitory effect on growth of Sclerotiana sclerotiorum compared to myclobutanil alone (Sclerotiana sclerotiorum) | inhibitory effect on the growth of Sclerotiana sclerotiorum compared to propiconazole alone (Sclerotiana sclerotiorum) | inhibitory effect on the growth of F. oxysporum compared to copper octanoate alone [1]

C/C(=N\NC(=O)c1cccc(C)c1)c1ccc2ccccc2c1 [AI.15, (E)-3-methyl-N′-(1-(naphthalen-2-yl)ethylidene)benzohydrazide]
significantly greater inhibitory effect: inhibitory effect on the growth of Sclerotiana sclerotiorum compared to copper octanoate alone (Sclerotiana sclerotiorum) | inhibitory effect on growth of Sclerotiana sclerotiorum compared to myclobutanil alone (Sclerotiana sclerotiorum) | inhibitory effect on the growth of Sclerotiana sclerotiorum compared to propiconazole alone (Sclerotiana sclerotiorum)
